From publication PMC7270110, “Labeled oxytocin administered via the intranasal route reaches the brain in rhesus macaques” (Nature Communications, 2020)

Assay: Brain tissue concentration of endogenous OT (d0OT) by LC-MS/MS (terminal experiment)
Type: in vivo, rhesus macaques (Macaca mulatta)
Details: for BRAIN OT concentration (endogenous): LC-MS/MS; for Concentrations of endogenous brain oxytocin (OT): molarity calculated for extracellular fluid volume
Procedure: Monkeys were divided into three groups, each with two monkeys; each group received the following in a terminal study at the 5th week: Group 1 (Monkeys ID# 1 and ID# 5) received 40 IU of d5OT IN, Group 2 received 80 IU of d5OT IN (Monkeys ID# 2 and ID# 4) and Group 3 received 80 IU of d5OT IV (Monkeys ID# 3 and ID# 6). Animals were perfused on average, 140 ± 7 (mean ± SD) min after d5OT administration (range = 135–149 min) (Table 4). Plasma and CSF were drawn just before administration of d5OT, at the midpoint between d5OT administration and perfusion (~60 min post-d5OT administration), and just before perfusion.
Brain tissue distribution of d5OT, as well as the endogenous concentrations of OT (d0OT), were measured in the following 12 brain regions: cerebellum, brainstem, striatum, amygdala, thalamus, visual cortex, insular cortex, hypothalamus, hippocampus, mPFC (Brodmann areas 32,25,24), dPFC (Brodmann areas 46,9,10), and OFC (Brodmann areas 14,13,12) (Tables 1, 2 and 3).
Brain tissue sample preparation: Samples (~1.5 mg per sample) were individually weighed and placed into 12 mm × 75 mm glass tubes containing 1.5 ml ice-cold 1 M acetic acid and 30 µl of OT-d10 internal standard. Tissues were homogenized on ice and the resulting homogenates were poured into individual 15 ml polystyrene tubes. The original glass tube was rinsed with 1 ml acetonitrile, and this rinse was added to the appropriate 15 ml polystyrene tube containing the homogenate. After all homogenizations were complete, 3 ml acetonitrile was added to each tube and extraction proceeded, as described for the plasma and CSF samples.
LC–MS/MS instrument parameters: Microtiter plates were prepared, as described above, and loaded onto a SIL-30ACMP autosampler set at 4 °C (Shimadzu). Forty microliters of each standard, QC or sample were injected onto an ACE Excel 2 C18-PFP 50 mm × 2.1 mm column (Advanced Chromatography Technologies, LTD, Aberdeen, Scotland) at 50 °C using reversed-phase chromatography. Mobile phase A was 0.1% formic acid in water and mobile phase B was 0.1% formic acid in ACN. The LC time gradient was created using two Nexera LC-30AD pumps (Shimadzu) running at 0.5 ml/min. Chromatography for serum and CSF samples began at 10% B and ended at 16% B at 3.6 min. One minute at 60% B was then required to wash the column, and the pumps re-equilibrated at 10% B for an additional 1.7 min (total run time ~6 min). Outside of the 1.55–3.55 min window during which OT eluted, a divert valve sent the LC effluent to waste.
Heated electrospray […] in positive mode, with scheduled multiple reaction monitoring (MRM) on a Shimadzu LCMS-8050, was used for detection of OT. The interface temperature was 270 °C and heat block temperature was 170 °C. Gas was supplied by a Peak Genius 1051 nitrogen and air generator (Peak Scientific, Inchinnan, UK). Nitrogen gas was used for nebulizing (1 L/min) and drying (8.2 L/min), while air was used for heating (7.8 L/min). A capillary B needle was used in the interface. Needle protrusion was set to 1.25 mm and probe distance was set to 1.0 mm; both were determined empirically. Argon (Airgas, Radnor, PA) was used for the collision-induced dissociation at 330 kPa. The MS/MS conditions for OT were optimized using the automated MRM optimization procedure in LabSolutions software (Shimadzu). We collected two MRM transitions each, for d0OT (1007.40 > 723.40 and 1007.40 > 285.30), d5OT (1012.00 > 723.40 and 1012.00 > 290.35), and d10OT (1017.70 > 723.35 and 1017.70 > 295.40); the first transition listed in each case was used for quantitation, while the second was used as a reference ion. Retention times for d0OT, d5OT, and d10OT were 3.290, 3.270, and 3.253 min, respectively.
The sensitivities of each assay within the method were determined by the lowest and highest concentration calibrators in the calibration curve. The lower limit of quantitation (LLOQ) for d0OT was 10 pg/ml (4 pg/col); the LLOQ for d5OT was 100 pg/ml (40 pg/col). […]

For `CC[C@H](C)[C@@H]1NC(=O)[C@H](Cc2ccc(O)cc2)NC(=O)[C@@H](N)CSSC[C@@H](C(=O)N2CCC[C@H]2C(=O)N[C@@H](CC(C)C)C(=O)NCC(N)=O)NC(=O)[C@H](CC(N)=O)NC(=O)[C@H](CCC(N)=O)NC1=O` [OT, oxytocin], the “BRAIN OT concentration (endogenous)” value (Insular Cortex, after d5OT 40 IU IN, monkey #5 (F), perfused 138 min post-dose) was 0.30 pg/mg, the “BRAIN OT concentration (endogenous)” value (Insular Cortex, after d5OT 80 IU IN, monkey #4 (M), perfused 135 min post-dose) was 0.06 pg/mg and the “BRAIN OT concentration (endogenous)” value (Insular Cortex, after d5OT 80 IU IV, monkey #3 (F), perfused 149 min post-dose) was 0.16 pg/mg. For the same compound, the “Concentrations of endogenous brain oxytocin (OT)” value (“Concentrations” below) (OFC, 40 IN, monkey #1 (F)) was 1e-09 M, the “Concentrations” value (OFC, 40 IN, monkey #5 (F)) was 5e-09 M and the “Concentrations” value (OFC, 80 IN, monkey #2 (M)) was 2.2e-09 M. The “Concentrations” value (OFC, 80 IN, monkey #4 (M)) was 9e-09 M, the “Concentrations” value (OFC, 80 IV, monkey #3 (F)) was 2e-09 M and the “BRAIN OT concentration (endogenous)” value (OFC, after d5OT 40 IU IN, monkey #1 (F), perfused 148 min post-dose) was 0.22 pg/mg. For the same compound, the “BRAIN OT concentration (endogenous)” value (OFC, after d5OT 40 IU IN, monkey #5 (F), perfused 138 min post-dose) was 0.96 pg/mg, the “BRAIN OT concentration (endogenous)” value (OFC, after d5OT 80 IU IN, monkey #2 (M), perfused 136 min post-dose) was 0.40 pg/mg and the “BRAIN OT concentration (endogenous)” value (OFC, after d5OT 80 IU IN, monkey #4 (M), perfused 135 min post-dose) was 1.59 pg/mg. For the same compound, the “BRAIN OT concentration (endogenous)” value (OFC, after d5OT 80 IU IV, monkey #3 (F), perfused 149 min post-dose) was 0.44 pg/mg, the “Concentrations” value (Striatum, 40 IN, monkey #1 (F)) was 3e-09 M and the “Concentrations” value (Striatum, 40 IN, monkey #5 (F)) was 7e-09 M. For the same compound, the “Concentrations” value (Striatum, 80 IN, monkey #2 (M)) was 9e-09 M, the “Concentrations” value (Striatum, 80 IN, monkey #4 (M)) was 9.7e-08 M and the “Concentrations” value (Striatum, 80 IV, monkey #3 (F)) was 7.9e-08 M. For the same compound, the “Concentrations” value (Striatum, 80 IV, monkey #6 (F)) was 8.6e-08 M, the “BRAIN OT concentration (endogenous)” value (Striatum, after d5OT 40 IU IN, monkey #1 (F), perfused 148 min post-dose) was 0.63 pg/mg and the “BRAIN OT concentration (endogenous)” value (Striatum, after d5OT 40 IU IN, monkey #5 (F), perfused 138 min post-dose) was 1.20 pg/mg. The “BRAIN OT concentration (endogenous)” value (Striatum, after d5OT 80 IU IN, monkey #2 (M), perfused 136 min post-dose) was 1.58 pg/mg, the “BRAIN OT concentration (endogenous)” value (Striatum, after d5OT 80 IU IN, monkey #4 (M), perfused 135 min post-dose) was 17.81 pg/mg and the “BRAIN OT concentration (endogenous)” value (Striatum, after d5OT 80 IU IV, monkey #3 (F), perfused 149 min post-dose) was 14.45 pg/mg. For the same compound, the “BRAIN OT concentration (endogenous)” value (Striatum, after d5OT 80 IU IV, monkey #6 (F), perfused 135 min post-dose) was 15.82 pg/mg, the “Concentrations” value (Thalamus, 40 IN, monkey #1 (F)) was 2.4e-08 M and the “Concentrations” value (Thalamus, 40 IN, monkey #5 (F)) was 4e-08 M. For the same compound, the “Concentrations” value (Thalamus, 80 IN, monkey #2 (M)) was 6e-09 M, the “Concentrations” value (Thalamus, 80 IN, monkey #4 (M)) was 1.7e-08 M and the “Concentrations” value (Thalamus, 80 IV, monkey #3 (F)) was 2.1e-08 M. The “Concentrations” value (Thalamus, 80 IV, monkey #6 (F)) was 1.55e-07 M, the “BRAIN OT concentration (endogenous)” value (Thalamus, after d5OT 40 IU IN, monkey #1 (F), perfused 148 min post-dose) was 4.39 pg/mg and the “BRAIN OT concentration (endogenous)” value (Thalamus, after d5OT 40 IU IN, monkey #5 (F), perfused 138 min post-dose) was 7.31 pg/mg. The “BRAIN OT concentration (endogenous)” value (Thalamus, after d5OT 80 IU IN, monkey #2 (M), perfused 136 min post-dose) was 1.02 pg/mg, the “BRAIN OT concentration (endogenous)” value (Thalamus, after d5OT 80 IU IN, monkey #4 (M), perfused 135 min post-dose) was 3.09 pg/mg and the “BRAIN OT concentration (endogenous)” value (Thalamus, after d5OT 80 IU IV, monkey #3 (F), perfused 149 min post-dose) was 3.85 pg/mg. The “BRAIN OT concentration (endogenous)” value (Thalamus, after d5OT 80 IU IV, monkey #6 (F), perfused 135 min post-dose) was 28.34 pg/mg, the “Concentrations” value (dPFC, 40 IN, monkey #5 (F)) was 1e-09 M and the “Concentrations” value (dPFC, 80 IN, monkey #4 (M)) was 1e-09 M. The “Concentrations” value (dPFC, 80 IV, monkey #3 (F)) was 2e-09 M, the “BRAIN OT concentration (endogenous)” value (dPFC, after d5OT 40 IU IN, monkey #5 (F), perfused 138 min post-dose) was 0.16 pg/mg and the “BRAIN OT concentration (endogenous)” value (dPFC, after d5OT 80 IU IN, monkey #4 (M), perfused 135 min post-dose) was 0.20 pg/mg. For the same compound, the “BRAIN OT concentration (endogenous)” value (dPFC, after d5OT 80 IU IV, monkey #3 (F), perfused 149 min post-dose) was 0.27 pg/mg, the “BRAIN OT concentration (endogenous)” value (mPFC, after d5OT 40 IU IN, monkey #1 (F), perfused 148 min post-dose) was 0.86 pg/mg and the “BRAIN OT concentration (endogenous)” value (mPFC, after d5OT 40 IU IN, monkey #5 (F), perfused 138 min post-dose) was 0.88 pg/mg. For the same compound, the “BRAIN OT concentration (endogenous)” value (mPFC, after d5OT 80 IU IN, monkey #4 (M), perfused 135 min post-dose) was 0.45 pg/mg.
